# Test results: ChEMBL document CHEMBL2440076, “New triarylpyrazoles as broad-spectrum anticancer agents: design, synthesis, and biological evaluation” (Eur J Med Chem, 2013)
# How the values were obtained:
# Type in all cases: functional
# [1] = Growth inhibition of human NCI-ADR-RES cells assessed as cell growth at 3X10'-5 M after 48 hrs by sulforhodamine B assay; conditions: read-out: Activity
# [2] = tested on: MOLT-4; assay: Growth inhibition of human MOLT4 cells assessed as cell growth at 3X10'-8 M after 48 hrs by sulforhodamine B assay; conditions: MOLT-4, 48 h, read-out: Activity
# [3] = tested on: KM12; assay: Growth inhibition of human KM12 cells assessed as cell growth at 3X10'-5 M after 48 hrs by sulforhodamine B assay; conditions: KM12, 48 h, read-out: Activity
# [4] = tested on: SNB-19; assay: Growth inhibition of human SNB19 cells assessed as cell growth at 3X10'-6 M after 48 hrs by sulforhodamine B assay; conditions: SNB-19, 48 h, read-out: Activity
# [5] = tested on: TK-10; assay: Growth inhibition of human TK10 cells assessed as cell growth at 3X10'-6 M after 48 hrs by sulforhodamine B assay; conditions: TK-10, 48 h, read-out: Activity
# [6] = tested on: PC-3; assay: Growth inhibition of human PC3 cells assessed as cell growth at 3X10'-6 M after 48 hrs by sulforhodamine B assay; conditions: PC-3, 48 h, read-out: Activity
# [7] = tested on: MCF7; assay: Growth inhibition of human MCF7 cells assessed as cell growth at 3X10'-5 M after 48 hrs by sulforhodamine B assay; conditions: MCF7, 48 h, read-out: Activity
# [8] = tested on: LOX IMVI; assay: Growth inhibition of human LOXIMVI cells assessed as cell growth at 3X10'-8 M after 48 hrs by sulforhodamine B assay; conditions: read-out: Activity
# [9] = tested on: ACHN; assay: Growth inhibition of human ACHN cells assessed as cell growth at 3X10'-5 M after 48 hrs by sulforhodamine B assay; conditions: read-out: Activity
# [10] = tested on: CAKI-1; assay: Growth inhibition of human CAKI-1 cells assessed as cell growth at 3X10'-5 M after 48 hrs by sulforhodamine B assay; conditions: CAKI-1, 48 h, read-out: Activity
# [11] = tested on: NCI-H522; assay: Growth inhibition of human NCI-H522 cells assessed as cell growth at 3X10'-7 M after 48 hrs by sulforhodamine B assay; conditions: NCI-H522, 48 h, read-out: Activity
# [12] = tested on: NCI-H460; assay: Growth inhibition of human NCI-H460 cells assessed as cell growth at 3X10'-6 M after 48 hrs by sulforhodamine B assay; conditions: NCI-H460, 48 h, read-out: Activity
# [13] = tested on: SNB-75; assay: Growth inhibition of human SNB75 cells assessed as cell growth at 3X10'-5 M after 48 hrs by sulforhodamine B assay; conditions: SNB-75, 48 h, read-out: Activity
# [14] = tested on: MDA-MB-435; assay: Growth inhibition of human MDA-MB-435 cells assessed as cell growth at 3X10'-5 M after 48 hrs by sulforhodamine B assay; conditions: MDA-MB-435, 48 h, read-out: Activity
# [15] = tested on: MCF7; assay: Growth inhibition of human MCF7 cells assessed as cell growth at 3X10'-7 M after 48 hrs by sulforhodamine B assay; conditions: MCF7, 48 h, read-out: Activity
# [16] = tested on: CAKI-1; assay: Growth inhibition of human CAKI-1 cells assessed as cell growth at 3X10'-7 M after 48 hrs by sulforhodamine B assay; conditions: CAKI-1, 48 h, read-out: Activity
# [17] = tested on: SK-MEL-2; assay: Growth inhibition of human SK-MEL-2 cells assessed as cell growth at 3X10'-5 M after 48 hrs by sulforhodamine B assay; conditions: SK-MEL-2, 48 h, read-out: Activity
# [18] = tested on: NCI-H226; assay: Growth inhibition of human NCI-H226 cells assessed as cell growth at 3X10'-6 M after 48 hrs by sulforhodamine B assay; conditions: NCI-H226, 48 h, read-out: Activity
# [19] = tested on: OVCAR-3; assay: Growth inhibition of human OVCAR3 cells assessed as cell growth at 3X10'-6 M after 48 hrs by sulforhodamine B assay; conditions: OVCAR-3, 48 h, read-out: Activity
# [20] = tested on: HL-60(TB); assay: Growth inhibition of human HL-60(TB) cells assessed as cell growth at 3X10'-6 M after 48 hrs by sulforhodamine B assay; conditions: HL-60, 48 h, read-out: Activity
# [21] = tested on: M14; assay: Growth inhibition of human M14 cells assessed as cell growth at 3X10'-5 M after 48 hrs by sulforhodamine B assay; conditions: M14, 48 h, read-out: Activity
# [22] = tested on: SR; assay: Growth inhibition of human SR cells assessed as cell growth at 3X10'-5 M after 48 hrs by sulforhodamine B assay; conditions: read-out: Activity
# [23] = tested on: SK-OV-3; assay: Growth inhibition of human SKOV3 cells assessed as cell growth at 3X10'-7 M after 48 hrs by sulforhodamine B assay; conditions: SK-OV-3, 48 h, read-out: Activity
# [24] = tested on: SW-620; assay: Growth inhibition of human SW620 cells assessed as cell growth at 3X10'-9 M after 48 hrs by sulforhodamine B assay; conditions: SW-620, 48 h, read-out: Activity
# [25] = tested on: HCT-116; assay: Growth inhibition of human HCT116 cells assessed as cell growth at 3X10'-9 M after 48 hrs by sulforhodamine B assay; conditions: HCT-116, 48 h, read-out: Activity
# [26] = tested on: A498; assay: Growth inhibition of human A498 cells assessed as cell growth at 3X10'-8 M after 48 hrs by sulforhodamine B assay; conditions: A498, 48 h, read-out: Activity
# [27] = tested on: T47D; assay: Growth inhibition of human T47D cells assessed as cell growth at 3X10'-5 M after 48 hrs by sulforhodamine B assay; conditions: read-out: Activity
# [28] = tested on: SNB-19; assay: Growth inhibition of human SNB19 cells assessed as cell growth at 3X10'-8 M after 48 hrs by sulforhodamine B assay; conditions: SNB-19, 48 h, read-out: Activity
# [29] = tested on: T47D; assay: Growth inhibition of human T47D cells assessed as cell growth at 3X10'-6 M after 48 hrs by sulforhodamine B assay; conditions: read-out: Activity
# [30] = tested on: OVCAR-8; assay: Growth inhibition of human OVCAR8 cells assessed as cell growth at 3X10'-5 M after 48 hrs by sulforhodamine B assay; conditions: OVCAR-8, 48 h, read-out: Activity
# [31] = Growth inhibition of human NCI-ADR-RES cells assessed as cell growth at 3X10'-7 M after 48 hrs by sulforhodamine B assay; conditions: read-out: Activity
# [32] = tested on: LOX IMVI; assay: Growth inhibition of human LOXIMVI cells assessed as cell growth at 3X10'-6 M after 48 hrs by sulforhodamine B assay; conditions: read-out: Activity
# [33] = tested on: UO-31; assay: Growth inhibition of human UO31 cells assessed as cell growth at 3X10'-6 M after 48 hrs by sulforhodamine B assay; conditions: UO-31, 48 h, read-out: Activity
# [34] = tested on: TK-10; assay: Growth inhibition of human TK10 cells assessed as cell growth at 3X10'-9 M after 48 hrs by sulforhodamine B assay; conditions: TK-10, 48 h, read-out: Activity
# [35] = tested on: NCI-H23; assay: Growth inhibition of human NCI-H23 cells assessed as cell growth at 5X10'-6 M after 48 hrs by sulforhodamine B assay; conditions: NCI-H23, 48 h, read-out: Activity
# [36] = tested on: OVCAR-4; assay: Growth inhibition of human OVCAR4 cells assessed as cell growth at 5X10'-6 M after 48 hrs by sulforhodamine B assay; conditions: OVCAR-4, 48 h, read-out: Activity
# [37] = tested on: UO-31; assay: Growth inhibition of human UO31 cells assessed as cell growth at 5X10'-6 M after 48 hrs by sulforhodamine B assay; conditions: UO-31, 48 h, read-out: Activity
smiles,measurement,setting,value
O=C(Nc1cccc(-n2cc(-c3ccncc3)c(-c3ccc(Cl)c(O)c3)n2)c1)Nc1ccc(Cl)c(C(F)(F)F)c1,growth at 30 µM,[1],-1%
same,growth at 0.03 µM,[2],116%
same,growth at 30 µM,[3],-70%
same,growth at 3 µM,[4],9%
same,growth at 3 µM,[5],24%
same,growth at 3 µM,[6],-15%
same,growth at 30 µM,[7],2%
same,growth at 0.03 µM,[8],99%
same,growth at 30 µM,[9],2%
same,growth at 30 µM,[10],-25%
same,growth at 0.3 µM,[11],82%
same,growth at 3 µM,[12],4%
same,growth at 30 µM,[13],-31%
same,growth at 30 µM,[14],-54%
same,growth at 0.3 µM,[15],71%
same,growth at 0.3 µM,[16],87%
same,growth at 30 µM,[17],-76%
same,growth at 3 µM,[18],30%
same,growth at 3 µM,[19],-24%
same,growth at 3 µM,[20],6%
same,growth at 30 µM,[21],-39%
same,growth at 30 µM,[22],-7%
same,growth at 0.3 µM,[23],95%
same,growth at 0.003 µM,[24],100%
same,growth at 0.003 µM,[25],105%
same,growth at 0.03 µM,[26],91%
same,growth at 30 µM,[27],10%
same,growth at 0.03 µM,[28],94%
same,growth at 3 µM,[29],11%
same,growth at 30 µM,[30],-14%
same,growth at 0.3 µM,[31],90%
same,growth at 3 µM,[32],-71%
same,growth at 3 µM,[33],-3%
same,growth at 0.003 µM,[34],101%
O=C(Nc1cccc(-n2cc(-c3ccncc3)c(-c3ccc(Cl)c(O)c3)n2)c1)c1ccc(N2CCOCC2)c(C(F)(F)F)c1,growth at 5 µM,[35],46%
same,growth at 5 µM,[36],80%
same,growth at 5 µM,[37],25%
